Test results taken from patent US5681836A, “Methanesulfonate salts of antipsychotic benzofuran derivatives” (Merck, Sharp & Dohme, Ltd., priority 1995, dated 1997).
Where a name gives a salt, the structure may show the parent alone.

Target: T1, human dopamine D4 receptor subtype (Homo sapiens, UniProt P21917)
T1 sequence (P21917 1-419): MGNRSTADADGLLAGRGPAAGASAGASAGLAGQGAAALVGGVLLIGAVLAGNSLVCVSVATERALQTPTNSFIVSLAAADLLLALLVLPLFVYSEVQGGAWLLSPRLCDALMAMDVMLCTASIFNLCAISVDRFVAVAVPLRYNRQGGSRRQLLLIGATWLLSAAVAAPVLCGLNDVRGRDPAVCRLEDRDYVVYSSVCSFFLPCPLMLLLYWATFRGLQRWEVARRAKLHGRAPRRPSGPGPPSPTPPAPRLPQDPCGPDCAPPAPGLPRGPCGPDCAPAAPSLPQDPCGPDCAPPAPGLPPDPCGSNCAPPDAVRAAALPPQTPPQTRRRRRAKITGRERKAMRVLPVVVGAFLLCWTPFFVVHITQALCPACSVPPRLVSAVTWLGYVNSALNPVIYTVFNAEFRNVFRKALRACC
Experiment: [3H]-Spiperone binding (displacement) studies, human dopamine D4 receptor subtype expressed in clonal cell lines
Details: 0.2 nM [3H]-spiperone for displacement; 60 min, room temperature (22° C.), pH 7.4; membranes of clonal cell lines; read-out: Ki value for displacement of [3H]-spiperone from the human dopamine D4 receptor subtype
Experimental: Moreover, these salts display a selective affinity for the D4 subtype relative to the D2 subtype.
Clonal cell lines expressing the human dopamine D4 receptor subtype were harvested in PBS and then lysed in 10 mM Tris-HCl pH 7.4 buffer containing 5 mM MgSO4 for 20 min on ice. Membranes were centrifuged at 50,000 g for 15 min at 4° C. and the resulting pellets resuspended in assay buffer (50 mM Tris-HCl pH 7.4 containing 5 mM EDTA, 1.5 mM CaCl2, 5 mM MgCl2, 5 mM KCl, 120 mM NaCl, and 0.1% ascorbic acid) at 20 mg/ml wet weight. Incubations were carried out for 60 min at room temperature (22° C.) in the presence of 0.05-2 nM [^3 H]-spiperone or 0.2 nM for displacement studies and were initiated by addition of 20-100 μg protein in a final assay volume of 0.5 ml. The incubation was terminated by rapid filtration over GF/B filters presoaked in 0.3% PEI and washed with 10 ml ice-cold 50 mM Tris-HCl, pH 7.4. Specific binding was determined by 10 μM apomorphine and radioactivity determined by counting in a LKB beta counter. Binding parameters were determined by non-linear least squares regression analysis, from which the inhibition constant Ki could be calculated for each test compound.

- Ki: < 1500 nM
SMILES: C1=C(/C=C/c2ccccc2)CCN(Cc2coc3ccccc23)C1 [Example 1, (E)-3-[4-(2-Phenylethenyl)-1,2,3,6-tetrahydropyridin-1-yl]methylbenzo[b]furan methanesulfonate salt]
